Measured values: PubChem BioAssay (NCI)
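Tested at 5 concentrations; 48 h exposure; 96-well plates; endpoints linearly interpolated, else capped at highest concentration. GI50 marks 50% less growth. TGI denotes the concentration required for complete inhibition of growth.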

Legend:
Test in all cases: inhibition of tumour cell growth, NCI panel, 48 h
NCI/ADR-RES ovarian = system: NCI/ADR-RES ovarian
EKVX NSCLC = system: EKVX NSCLC
OVCAR-3 ovarian = system: OVCAR-3 ovarian
OVCAR-4 ovarian = system: OVCAR-4 ovarian
HOP-92 NSCLC = system: HOP-92 NSCLC
SK-OV-3 ovarian = system: SK-OV-3 ovarian
SF-539 CNS = system: SF-539 CNS
BT-549 breast = system: BT-549 breast
NCI-H226 lung = system: NCI-H226 lung
TK-10 renal = system: TK-10 renal
UACC-257 melanoma = system: UACC-257 melanoma
LOX IMVI melanoma = system: LOX IMVI melanoma
RPMI-8226 leukemia = system: RPMI-8226 leukemia
U251 CNS = system: U251 CNS
SK-MEL-28 melanoma = system: SK-MEL-28 melanoma
HL-60(TB) leukemia = system: HL-60(TB) leukemia
HCT-116 colon = system: HCT-116 colon
SK-MEL-2 melanoma = system: SK-MEL-2 melanoma
HT29 colon = system: HT29 colon
HCC-2998 colon = system: HCC-2998 colon
SNB-75 CNS = system: SNB-75 CNS
UO-31 renal = system: UO-31 renal
COLO 205 colon = system: COLO 205 colon
PC-3 prostate = system: PC-3 prostate
ACHN renal = system: ACHN renal
NCI-H23 lung = system: NCI-H23 lung
IGROV1 ovarian = system: IGROV1 ovarian
KM12 colon = system: KM12 colon
HOP-62 NSCLC = system: HOP-62 NSCLC
A549 NSCLC = system: A549 NSCLC
A498 renal = system: A498 renal
MDA-N = system: MDA-N
786-0 renal = system: 786-0 renal
K-562 leukemia = system: K-562 leukemia
MDA-MB-231 breast = system: MDA-MB-231 breast
SR leukemia = system: SR leukemia
MALME-3M melanoma = system: MALME-3M melanoma
OVCAR-8 ovarian = system: OVCAR-8 ovarian
UACC-62 melanoma = system: UACC-62 melanoma
M14 melanoma = system: M14 melanoma
SNB-19 CNS = system: SNB-19 CNS
NCI-H460 lung = system: NCI-H460 lung
HS 578T breast = system: HS 578T breast
SN12C renal = system: SN12C renal
MOLT-4 leukemia = system: MOLT-4 leukemia
CAKI-1 renal = system: CAKI-1 renal
RXF 393 renal = system: RXF 393 renal
SK-MEL-5 melanoma = system: SK-MEL-5 melanoma
NCI-H522 lung = system: NCI-H522 lung
CCRF-CEM leukemia = system: CCRF-CEM leukemia
SW-620 colon = system: SW-620 colon
SF-268 CNS = system: SF-268 CNS
MCF7 breast = system: MCF7 breast
HCT-15 colon = system: HCT-15 colon
MDA-MB-435 = system: MDA-MB-435
T-47D breast = system: T-47D breast
OVCAR-5 ovarian = system: OVCAR-5 ovarian
DU-145 prostate = system: DU-145 prostate
SF-295 CNS = system: SF-295 CNS

Structure (SMILES): Cc1nc2ccccc2nc1NNc1ccccc1
- TGI (NCI/ADR-RES ovarian): 75.8 µM
- TGI (EKVX NSCLC): 68.2 µM
- TGI (OVCAR-3 ovarian): 70.4 µM
- TGI (OVCAR-4 ovarian): > 87.8 µM
- TGI (HOP-92 NSCLC): 57 µM
- GI50 (SK-OV-3 ovarian): 24.8 µM
- TGI (SK-OV-3 ovarian): > 100 µM
- TGI (SF-539 CNS): > 96.2 µM
- TGI (BT-549 breast): 70 µM
- TGI (NCI-H226 lung): 85.7 µM
- TGI (TK-10 renal): 98.7 µM
- TGI (UACC-257 melanoma): 74.3 µM
- TGI (LOX IMVI melanoma): 70.7 µM
- TGI (RPMI-8226 leukemia): 41 µM
- TGI (U251 CNS): > 93.5 µM
- TGI (SK-MEL-28 melanoma): > 96.7 µM
- TGI (HL-60(TB) leukemia): 58.8 µM
- TGI (HCT-116 colon): > 100 µM
- TGI (SK-MEL-2 melanoma): > 80.8 µM
- TGI (HT29 colon): 18.7 µM
- TGI (HCC-2998 colon): > 100 µM
- TGI (SNB-75 CNS): > 84.9 µM
- TGI (UO-31 renal): > 86.5 µM
- TGI (COLO 205 colon): 1.03 µM
- TGI (PC-3 prostate): > 84.4 µM
- TGI (ACHN renal): 85.9 µM
- TGI (NCI-H23 lung): 77.2 µM
- TGI (IGROV1 ovarian): 73.3 µM
- TGI (KM12 colon): 63.4 µM
- TGI (HOP-62 NSCLC): 86.6 µM
- TGI (A549 NSCLC): > 95.9 µM
- TGI (A498 renal): > 94.5 µM
- TGI (MDA-N): 48.9 µM
- TGI (786-0 renal): > 92.1 µM
- TGI (K-562 leukemia): 74.5 µM
- TGI (MDA-MB-231 breast): 70.7 µM
- TGI (SR leukemia): 74.5 µM
- TGI (MALME-3M melanoma): 69.5 µM
- TGI (OVCAR-8 ovarian): 77.8 µM
- TGI (UACC-62 melanoma): 43.4 µM
- TGI (M14 melanoma): 64.8 µM
- TGI (SNB-19 CNS): > 100 µM
- TGI (NCI-H460 lung): > 88.7 µM
- TGI (HS 578T breast): > 95.1 µM
- TGI (SN12C renal): 72.9 µM
- GI50 (MOLT-4 leukemia): 12.1 µM
- TGI (MOLT-4 leukemia): 40.7 µM
- TGI (CAKI-1 renal): > 100 µM
- GI50 (RXF 393 renal): 18.6 µM
- TGI (RXF 393 renal): 78.7 µM
- TGI (SK-MEL-5 melanoma): 31.5 µM
- TGI (NCI-H522 lung): > 88.4 µM
- TGI (CCRF-CEM leukemia): 78.7 µM
- TGI (SW-620 colon): > 74.9 µM
- TGI (SF-268 CNS): > 100 µM
- TGI (MCF7 breast): > 100 µM
- TGI (HCT-15 colon): > 82.6 µM
- TGI (MDA-MB-435): 41.7 µM
- TGI (T-47D breast): 46.9 µM
- TGI (OVCAR-5 ovarian): > 84.4 µM
- TGI (DU-145 prostate): > 86.1 µM
- TGI (SF-295 CNS): > 93.6 µM

Structure (SMILES): Clc1ccc(COc2ccccc2/C=N/c2c(-c3ccco3)nc3ccccn23)c(Cl)c1
- TGI (NCI/ADR-RES ovarian): 96.1 µM
- TGI (EKVX NSCLC): > 100 µM
- TGI (OVCAR-3 ovarian): > 100 µM
- TGI (OVCAR-4 ovarian): > 100 µM
- TGI (HOP-92 NSCLC): 57.4 µM
- TGI (SK-OV-3 ovarian): > 100 µM
- TGI (SF-539 CNS): 47.3 µM
- TGI (BT-549 breast): 89.6 µM
- TGI (NCI-H226 lung): > 100 µM
- TGI (TK-10 renal): 88.6 µM
- TGI (UACC-257 melanoma): > 100 µM
- TGI (LOX IMVI melanoma): 35.5 µM
- TGI (RPMI-8226 leukemia): 86.2 µM
- TGI (U251 CNS): > 100 µM
- TGI (SK-MEL-28 melanoma): > 100 µM
- TGI (HL-60(TB) leukemia): 71.2 µM
- TGI (HCT-116 colon): 36.7 µM
- TGI (SK-MEL-2 melanoma): 42.8 µM
- TGI (HT29 colon): > 100 µM
- TGI (HCC-2998 colon): > 100 µM
- TGI (SNB-75 CNS): 69.7 µM
- TGI (UO-31 renal): > 100 µM
- TGI (COLO 205 colon): > 100 µM
- TGI (PC-3 prostate): > 100 µM
- TGI (ACHN renal): > 100 µM
- TGI (NCI-H23 lung): > 100 µM
- TGI (IGROV1 ovarian): > 100 µM
- TGI (KM12 colon): > 100 µM
- TGI (HOP-62 NSCLC): > 100 µM
- TGI (A549 NSCLC): > 100 µM
- TGI (A498 renal): > 100 µM
- TGI (MDA-N): 70.2 µM
- TGI (786-0 renal): 75.9 µM
- TGI (K-562 leukemia): > 100 µM
- TGI (MDA-MB-231 breast): 52.6 µM
- TGI (SR leukemia): 49.2 µM
- TGI (MALME-3M melanoma): > 100 µM
- TGI (OVCAR-8 ovarian): > 100 µM
- TGI (UACC-62 melanoma): > 100 µM
- TGI (M14 melanoma): 74.1 µM
- TGI (SNB-19 CNS): > 100 µM
- TGI (NCI-H460 lung): > 100 µM
- TGI (HS 578T breast): > 100 µM
- TGI (SN12C renal): 66.6 µM
- TGI (MOLT-4 leukemia): > 100 µM
- TGI (CAKI-1 renal): > 100 µM
- TGI (RXF 393 renal): 56.3 µM
- TGI (SK-MEL-5 melanoma): 32 µM
- TGI (NCI-H522 lung): > 100 µM
- TGI (CCRF-CEM leukemia): 63.7 µM
- TGI (SW-620 colon): > 100 µM
- TGI (SF-268 CNS): > 100 µM
- TGI (MCF7 breast): 62 µM
- TGI (HCT-15 colon): 88.3 µM
- TGI (MDA-MB-435): 49.1 µM
- TGI (T-47D breast): > 100 µM
- TGI (OVCAR-5 ovarian): > 100 µM
- TGI (DU-145 prostate): 76 µM
- TGI (SF-295 CNS): > 100 µM
